From US8192962B2, “Processes for detecting toxic substances” (Daikin Industries, Ltd., priority 2001, dated 2012)

System: Mitochondria-located protein genes
Experiment: DNA chip mRNA expression in yeast, mitochondria-located protein genes (Table 2)
Assay type: cell-based, Saccharomyces cerevisiae S288C
Conditions: cells incubated two hours with the chemical substance
Experimental: Yeast (Saccharomyces cerevisiae S288C (α SUC2mal mel gap2 CUP1)) were incubated at 25° C. on YPD medium (yeast extract 1%, polypepton 2%, glucose 2%). One of toxic chemical substances was added to the cells at logarithmic growth phase, and the cells were further incubated for two hours. Cells were cultured without any chemical substance in the same condition, and were used as control. Concentrations of the chemical substances were defined to inhibit the growth of the yeast but not lead to death.
After completion of the incubation, the culture was centrifuged to collect the cells. To the cells, sodium acetate buffer (50 mM sodium acetate, 10 mM EDTA, 1% SDS) was added, and the mixture was shaken at 65° C. for five minutes, followed by returning to room temperature, and obtaining the supernatant, of which the procedures were repeated two times. To the supernatant, ½ amount of a solution of phenol/chloroform was added, and the mixture was centrifuged to give a supernatant, which was added with an equal amount of chloroform, and the mixture was centrifuged to give a supernatant. To the supernatant, an equal amount of isopropanol containing 0.3 M sodium acetate was added, and the mixture was allowed to stand at room temperature for 30 minutes, after which the mixture was centrifuged to give a sediment of the whole RNAs. Seventy % ethanol was added to the sediment, and the mixture was again centrifuged to give a sediment, which was then dried and dissolved in water. mRNA was isolated from the whole RNAs as followings. In view of the fact that a poly A chain is attached to the 3′ terminus of mRNA, a polynucleotide having a poly T structure which was immobilized on the surface of latex beads was used to trap the mRNA, and then the mRNA was washed and eluted with spine column (Oligotex-dT30<Super>mRNA Purification Kit, Takara). Reverse transcription of the mRNA was conducted with a reverse transcriptase (Super Script II Reverse Transcriptase; catalogue No. 18064-014, GibcoBRL) using fluorescence-labeled nucleotides to give cDNAs that were introduced with Cy3-dUTP or Cy5-dUTP during the reverse transcription.
The labeled cDNAs were dissolved in TE buffer (10mM Tris-HCl/1 mM EDTA, pH8.0), and the solution was dropped on the DNA chip containing the whole genes of yeast (DNA Chip Research Inc. Japan) so that the cDNAs were hybridized on the DNA chip at 65° C. for over 12 hours. The fluoresces intensity of the DNA chip was read with a scanner, and the ratio relative to the fluorescence intensity resulting from the absence of chemical substance was estimated as the following, which is shown in Tables 1 to 9: […]

[Cl][Pb][Cl] [(4), PbCl2]
The level of expressed mRNA in the presence of chemical substance/The level of expressed mRNA in the absence of chemical substance (yeast gene YKL003C): 1.8
The level of expressed mRNA in the presence of chemical substance/The level of expressed mRNA in the absence of chemical substance (yeast gene YKL016C): 1.7
The level of expressed mRNA in the presence of chemical substance/The level of expressed mRNA in the absence of chemical substance (yeast gene YKL141W): 1.7
The level of expressed mRNA in the presence of chemical substance/The level of expressed mRNA in the absence of chemical substance (yeast gene YKL142W): 1.4
The level of expressed mRNA in the presence of chemical substance/The level of expressed mRNA in the absence of chemical substance (yeast gene YKL148C): 0.7
The level of expressed mRNA in the presence of chemical substance/The level of expressed mRNA in the absence of chemical substance (yeast gene YKL170W): 1.9
The level of expressed mRNA in the presence of chemical substance/The level of expressed mRNA in the absence of chemical substance (yeast gene YKL194C): 1.6
The level of expressed mRNA in the presence of chemical substance/The level of expressed mRNA in the absence of chemical substance (yeast gene YKR066C): 0.7
The level of expressed mRNA in the presence of chemical substance/The level of expressed mRNA in the absence of chemical substance (yeast gene YLL041C): 1.0
The level of expressed mRNA in the presence of chemical substance/The level of expressed mRNA in the absence of chemical substance (yeast gene YLR038C): 2.1
The level of expressed mRNA in the presence of chemical substance/The level of expressed mRNA in the absence of chemical substance (yeast gene YLR259C): 1.6
The level of expressed mRNA in the presence of chemical substance/The level of expressed mRNA in the absence of chemical substance (yeast gene YLR295C): 1.7
The level of expressed mRNA in the presence of chemical substance/The level of expressed mRNA in the absence of chemical substance (yeast gene YLR304C): 0.7
The level of expressed mRNA in the presence of chemical substance/The level of expressed mRNA in the absence of chemical substance (yeast gene YLR348C): 1.2
The level of expressed mRNA in the presence of chemical substance/The level of expressed mRNA in the absence of chemical substance (yeast gene YLR395C): 1.9
The level of expressed mRNA in the presence of chemical substance/The level of expressed mRNA in the absence of chemical substance (yeast gene YML054C): 3.4
The level of expressed mRNA in the presence of chemical substance/The level of expressed mRNA in the absence of chemical substance (yeast gene YML120C): 1.9
The level of expressed mRNA in the presence of chemical substance/The level of expressed mRNA in the absence of chemical substance (yeast gene YML129C): 1.2
The level of expressed mRNA in the presence of chemical substance/The level of expressed mRNA in the absence of chemical substance (yeast gene YMR023C): 1.9
The level of expressed mRNA in the presence of chemical substance/The level of expressed mRNA in the absence of chemical substance (yeast gene YMR035W): 1.7
The level of expressed mRNA in the presence of chemical substance/The level of expressed mRNA in the absence of chemical substance (yeast gene YMR083W): 1.1
The level of expressed mRNA in the presence of chemical substance/The level of expressed mRNA in the absence of chemical substance (yeast gene YMR089C): 0.9
The level of expressed mRNA in the presence of chemical substance/The level of expressed mRNA in the absence of chemical substance (yeast gene YMR152W): 0.9
The level of expressed mRNA in the presence of chemical substance/The level of expressed mRNA in the absence of chemical substance (yeast gene YMR203W): 1.4
The level of expressed mRNA in the presence of chemical substance/The level of expressed mRNA in the absence of chemical substance (yeast gene YMR267W): 0.9
The level of expressed mRNA in the presence of chemical substance/The level of expressed mRNA in the absence of chemical substance (yeast gene YNL055C): 2.0
The level of expressed mRNA in the presence of chemical substance/The level of expressed mRNA in the absence of chemical substance (yeast gene YNL071W): 1.5
The level of expressed mRNA in the presence of chemical substance/The level of expressed mRNA in the absence of chemical substance (yeast gene YNL073W): 1.7
The level of expressed mRNA in the presence of chemical substance/The level of expressed mRNA in the absence of chemical substance (yeast gene YNL104C): 0.9
The level of expressed mRNA in the presence of chemical substance/The level of expressed mRNA in the absence of chemical substance (yeast gene YNL256W): 0.6
The level of expressed mRNA in the presence of chemical substance/The level of expressed mRNA in the absence of chemical substance (yeast gene YOL096C): 1.6
The level of expressed mRNA in the presence of chemical substance/The level of expressed mRNA in the absence of chemical substance (yeast gene YOR020C): 1.7
The level of expressed mRNA in the presence of chemical substance/The level of expressed mRNA in the absence of chemical substance (yeast gene YOR037W): 1.4
The level of expressed mRNA in the presence of chemical substance/The level of expressed mRNA in the absence of chemical substance (yeast gene YOR100C): 1.7
The level of expressed mRNA in the presence of chemical substance/The level of expressed mRNA in the absence of chemical substance (yeast gene YOR130C): 1.0
The level of expressed mRNA in the presence of chemical substance/The level of expressed mRNA in the absence of chemical substance (yeast gene YOR142W): 1.0
The level of expressed mRNA in the presence of chemical substance/The level of expressed mRNA in the absence of chemical substance (yeast gene YOR150W): 1.9
The level of expressed mRNA in the presence of chemical substance/The level of expressed mRNA in the absence of chemical substance (yeast gene YOR176W): 0.9
The level of expressed mRNA in the presence of chemical substance/The level of expressed mRNA in the absence of chemical substance (yeast gene YOR187W): 2.0
The level of expressed mRNA in the presence of chemical substance/The level of expressed mRNA in the absence of chemical substance (yeast gene YOR316C): 1.5
The level of expressed mRNA in the presence of chemical substance/The level of expressed mRNA in the absence of chemical substance (yeast gene YPL040C): 1.7
The level of expressed mRNA in the presence of chemical substance/The level of expressed mRNA in the absence of chemical substance (yeast gene YPL134C): 1.6
The level of expressed mRNA in the presence of chemical substance/The level of expressed mRNA in the absence of chemical substance (yeast gene YPL135W): 1.2
The level of expressed mRNA in the presence of chemical substance/The level of expressed mRNA in the absence of chemical substance (yeast gene YPL215W): 1.5
The level of expressed mRNA in the presence of chemical substance/The level of expressed mRNA in the absence of chemical substance (yeast gene YPL262W): 1.2
The level of expressed mRNA in the presence of chemical substance/The level of expressed mRNA in the absence of chemical substance (yeast gene YPR024W): 1.0
The level of expressed mRNA in the presence of chemical substance/The level of expressed mRNA in the absence of chemical substance (yeast gene YPR037C): 1.3
The level of expressed mRNA in the presence of chemical substance/The level of expressed mRNA in the absence of chemical substance (yeast gene YPR047W): 1.5
The level of expressed mRNA in the presence of chemical substance/The level of expressed mRNA in the absence of chemical substance (yeast gene YPR067W): 0.9
The level of expressed mRNA in the presence of chemical substance/The level of expressed mRNA in the absence of chemical substance (yeast gene YPR134W): 1.7
